Source: ChEMBL document CHEMBL1201862, “PubChem BioAssay data set” (2004)
The source made the active and inactive calls.

Key:
[1] = biological target: T1, Short transient receptor potential channel 4 (Mus musculus, UniProt Q9QUQ5); assay: block of DAMGO-driven TRPC4 calcium entry – cell-based, HEK293 TRPC4/mu-opioid, Fluo-4 calcium, dose response (AID 434942); assay type: functional;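 note: potency of inhibitors blocking the TRPC4 calcium response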
T1 sequence (Q9QUQ5 whole entry): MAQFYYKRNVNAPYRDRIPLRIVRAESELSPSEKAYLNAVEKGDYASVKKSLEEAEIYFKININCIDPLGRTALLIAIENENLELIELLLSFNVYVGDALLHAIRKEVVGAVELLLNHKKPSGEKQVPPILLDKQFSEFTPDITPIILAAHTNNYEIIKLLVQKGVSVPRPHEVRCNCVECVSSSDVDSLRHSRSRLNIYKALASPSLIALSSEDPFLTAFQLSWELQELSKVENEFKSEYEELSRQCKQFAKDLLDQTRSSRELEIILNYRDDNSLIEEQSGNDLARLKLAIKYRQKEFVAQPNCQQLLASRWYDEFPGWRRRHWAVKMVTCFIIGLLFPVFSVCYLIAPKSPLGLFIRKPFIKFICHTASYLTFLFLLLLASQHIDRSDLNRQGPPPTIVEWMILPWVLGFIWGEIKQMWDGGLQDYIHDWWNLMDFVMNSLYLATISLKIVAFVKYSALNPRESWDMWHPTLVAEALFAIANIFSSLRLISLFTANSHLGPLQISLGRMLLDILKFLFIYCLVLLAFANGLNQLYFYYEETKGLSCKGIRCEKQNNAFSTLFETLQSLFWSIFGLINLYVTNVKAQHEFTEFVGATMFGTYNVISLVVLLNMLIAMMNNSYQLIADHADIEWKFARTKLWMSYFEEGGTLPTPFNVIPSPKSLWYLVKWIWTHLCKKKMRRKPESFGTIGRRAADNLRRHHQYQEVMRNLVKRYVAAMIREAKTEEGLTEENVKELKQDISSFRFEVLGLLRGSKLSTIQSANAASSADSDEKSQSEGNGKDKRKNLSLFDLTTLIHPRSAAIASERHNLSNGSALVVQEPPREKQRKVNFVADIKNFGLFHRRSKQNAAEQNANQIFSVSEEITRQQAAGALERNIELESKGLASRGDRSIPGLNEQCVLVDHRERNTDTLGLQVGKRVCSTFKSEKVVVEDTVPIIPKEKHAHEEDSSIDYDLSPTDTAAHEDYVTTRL

Cytochrome P450 2C19 = Cytochrome P450 2C19 (Homo sapiens, UniProt P33261); assay: Cytochrome panel assay with activity outcomes. Panel member name: p450-cyp2c19 Compounds with AC50 equal or less than 10 uM are considered active; assay type: functional; conditions: read-out: AC50
Chain of Cytochrome P450 2C19 (P33261 whole entry): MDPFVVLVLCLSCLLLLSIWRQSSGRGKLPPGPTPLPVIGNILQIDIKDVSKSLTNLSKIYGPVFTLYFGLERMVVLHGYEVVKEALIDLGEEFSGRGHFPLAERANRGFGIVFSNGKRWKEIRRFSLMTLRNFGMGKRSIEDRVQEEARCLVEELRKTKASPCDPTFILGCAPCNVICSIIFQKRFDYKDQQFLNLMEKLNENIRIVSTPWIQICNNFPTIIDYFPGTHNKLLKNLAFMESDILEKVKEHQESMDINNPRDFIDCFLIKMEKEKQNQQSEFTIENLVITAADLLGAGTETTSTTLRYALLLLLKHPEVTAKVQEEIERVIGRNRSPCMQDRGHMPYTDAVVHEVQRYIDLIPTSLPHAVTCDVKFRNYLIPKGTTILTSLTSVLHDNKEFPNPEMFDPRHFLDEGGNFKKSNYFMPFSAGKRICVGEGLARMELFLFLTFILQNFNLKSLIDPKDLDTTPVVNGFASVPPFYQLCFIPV

Cytochrome P450 2D6 = Cytochrome P450 2D6 (Homo sapiens, UniProt P10635);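 note: CYP2D6 member of a cytochrome P450 panel assay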
Chain of Cytochrome P450 2D6 (P10635 whole entry): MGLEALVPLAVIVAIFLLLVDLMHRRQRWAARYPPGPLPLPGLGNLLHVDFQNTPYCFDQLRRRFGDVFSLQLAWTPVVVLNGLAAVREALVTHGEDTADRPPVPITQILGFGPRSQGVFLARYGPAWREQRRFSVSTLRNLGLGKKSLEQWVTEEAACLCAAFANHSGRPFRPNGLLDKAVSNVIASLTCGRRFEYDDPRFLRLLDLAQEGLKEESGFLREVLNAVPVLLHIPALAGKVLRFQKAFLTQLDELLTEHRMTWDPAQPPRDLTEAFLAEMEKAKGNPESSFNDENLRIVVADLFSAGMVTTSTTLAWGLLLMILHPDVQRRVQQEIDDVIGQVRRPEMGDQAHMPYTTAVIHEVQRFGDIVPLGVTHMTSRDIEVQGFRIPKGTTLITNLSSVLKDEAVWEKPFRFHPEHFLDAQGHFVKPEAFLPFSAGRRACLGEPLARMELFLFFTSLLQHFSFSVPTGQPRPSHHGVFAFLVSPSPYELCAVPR

Nonstructural protein 1 = Nonstructural protein 1 (Influenza A virus, UniProt Q194T2); assay type: functional, Influenza A virus (A/California/07/2009(H1N1))
Chain of Nonstructural protein 1 (Q194T2 whole entry): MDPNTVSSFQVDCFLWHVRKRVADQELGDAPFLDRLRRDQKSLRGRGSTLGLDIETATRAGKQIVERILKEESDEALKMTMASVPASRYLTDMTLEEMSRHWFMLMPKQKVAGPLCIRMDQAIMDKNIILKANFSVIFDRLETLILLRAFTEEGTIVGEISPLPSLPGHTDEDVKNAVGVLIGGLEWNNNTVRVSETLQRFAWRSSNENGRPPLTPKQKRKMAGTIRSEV

[2] = biological target: T2, Histone-lysine N-methyltransferase NSD2 (Homo sapiens, UniProt O96028); assay type: biochemical
T2 sequence (O96028 whole entry): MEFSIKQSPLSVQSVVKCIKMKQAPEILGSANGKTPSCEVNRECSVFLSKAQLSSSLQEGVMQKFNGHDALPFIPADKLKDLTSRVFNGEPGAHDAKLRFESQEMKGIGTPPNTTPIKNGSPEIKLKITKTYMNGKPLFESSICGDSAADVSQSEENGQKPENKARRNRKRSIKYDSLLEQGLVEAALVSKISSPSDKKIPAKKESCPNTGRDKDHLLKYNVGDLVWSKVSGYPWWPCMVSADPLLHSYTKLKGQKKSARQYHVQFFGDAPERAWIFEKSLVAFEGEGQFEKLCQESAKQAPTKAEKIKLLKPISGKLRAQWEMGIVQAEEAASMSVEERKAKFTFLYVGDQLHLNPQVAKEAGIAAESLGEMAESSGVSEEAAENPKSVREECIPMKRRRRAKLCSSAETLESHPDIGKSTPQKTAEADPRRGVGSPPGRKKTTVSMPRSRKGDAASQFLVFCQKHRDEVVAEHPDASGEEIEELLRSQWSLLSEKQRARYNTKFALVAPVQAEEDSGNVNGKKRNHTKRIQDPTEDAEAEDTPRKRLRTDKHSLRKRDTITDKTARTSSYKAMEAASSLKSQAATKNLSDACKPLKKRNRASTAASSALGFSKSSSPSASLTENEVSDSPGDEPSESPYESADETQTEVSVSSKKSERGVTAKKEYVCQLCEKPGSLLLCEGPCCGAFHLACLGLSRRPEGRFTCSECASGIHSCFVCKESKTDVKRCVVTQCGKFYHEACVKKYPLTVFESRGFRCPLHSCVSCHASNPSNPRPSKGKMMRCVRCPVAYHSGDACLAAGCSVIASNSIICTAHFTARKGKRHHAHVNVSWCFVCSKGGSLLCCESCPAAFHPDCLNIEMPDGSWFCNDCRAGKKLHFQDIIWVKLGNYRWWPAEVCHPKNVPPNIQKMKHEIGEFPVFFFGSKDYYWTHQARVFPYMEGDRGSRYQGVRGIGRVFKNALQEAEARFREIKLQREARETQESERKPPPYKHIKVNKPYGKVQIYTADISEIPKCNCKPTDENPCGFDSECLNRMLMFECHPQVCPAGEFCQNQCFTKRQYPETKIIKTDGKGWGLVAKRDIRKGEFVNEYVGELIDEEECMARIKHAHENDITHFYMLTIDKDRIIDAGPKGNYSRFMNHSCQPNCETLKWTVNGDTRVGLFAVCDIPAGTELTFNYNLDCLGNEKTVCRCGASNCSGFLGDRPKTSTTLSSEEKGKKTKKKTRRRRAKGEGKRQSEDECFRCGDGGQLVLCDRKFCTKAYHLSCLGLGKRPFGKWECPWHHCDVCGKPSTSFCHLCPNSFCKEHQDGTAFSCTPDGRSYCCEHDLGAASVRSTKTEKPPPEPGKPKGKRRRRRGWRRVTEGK

[3] = reduction of Shn3 3'UTR-driven luciferase in osteoblasts – cell-based, Clone20 osteoblasts, firefly luciferase, cherry-picked, dose response (AID 624132); assay type: functional;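 note: firefly luciferase luminescence from reporter carrying the Shn3 3'UTR in osteoblasts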
[4] = non-specific 3'UTR reporter inhibition in Clone20-Shn3RL – cell-based, Renilla luciferase, cherry-picked, counter-screen for Shn3 inhibitor project, dose response (AID 624133); assay type: functional
[5] = biological target: Glucose-6-phosphate 1-dehydrogenase (Homo sapiens, UniProt P11413); assay: inhibition of Homo sapiens G6PD, dose series – biochemical, fluorescence, selectivity assay for P. falciparum G6PD inhibitor project, dose response (AID 504792); assay type: functional
Chain of Glucose-6-phosphate 1-dehydrogenase (P11413 whole entry): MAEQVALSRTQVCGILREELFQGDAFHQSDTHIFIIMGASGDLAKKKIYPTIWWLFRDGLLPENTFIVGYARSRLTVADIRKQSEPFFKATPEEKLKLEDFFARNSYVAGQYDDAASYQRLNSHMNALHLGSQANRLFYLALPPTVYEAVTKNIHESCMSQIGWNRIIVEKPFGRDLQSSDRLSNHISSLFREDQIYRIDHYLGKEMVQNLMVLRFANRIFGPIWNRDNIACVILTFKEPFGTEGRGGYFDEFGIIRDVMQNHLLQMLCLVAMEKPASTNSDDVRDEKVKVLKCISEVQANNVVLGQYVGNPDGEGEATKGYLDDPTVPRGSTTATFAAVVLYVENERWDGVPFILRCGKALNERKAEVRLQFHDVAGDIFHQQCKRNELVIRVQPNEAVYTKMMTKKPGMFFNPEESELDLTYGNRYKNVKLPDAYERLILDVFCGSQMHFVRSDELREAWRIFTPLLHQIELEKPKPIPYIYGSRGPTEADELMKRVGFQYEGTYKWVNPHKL

[6] = Trypanosoma cruzi growth suppression in host cells – NIH3T3 host cells, beta-gal luminescence, confirmation (AID 2044); assay type: functional, cell-based;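 note: intracellular parasites grown in NIH/3T3 mouse fibroblasts as host cells; luminescent beta-galactosidase reporter signal from transgenic T. cruzi replicating inside host cells; inhibitors lower the luminescence signal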
[7] = NIH3T3 cell viability loss – ATP luminescence, mouse fibroblasts, counter-screen, dose response (AID 2010); assay type: functional, cell-based;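 note: cells exposed to compound for about 90 hours before reading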

Compound	EC50 [1]	IC50 (Nonstructural protein 1)	also measured
O=C(CSc1nnc(-c2ccc(Cl)cc2Cl)n1C1CCCCC1)NC1CCS(=O)(=O)C1 (stereo not drawn)	1.68 µM (active)	–	AC50 (Cytochrome P450 2C19): 39.8 µM (inconclusive); AC50 (Cytochrome P450 2D6): 35.5 µM (inconclusive)
CN(C)c1ccc(CN2CC=C(c3ccc(F)cc3)CC2)cc1	–	50.2 µM (active)	AC50 [2]: > 20 µM (inactive)
CCC(O)(c1ccc(OC)cc1)C(CN1CCOCC1)c1ccccc1 (stereo not drawn)	5.96 µM (active)	–	–
O=[N+]([O-])c1ccc(C[n+]2cccc3ccc4cccnc4c32)cc1	–	7.75 µM (active)	–
O=C(CSc1nnc(-c2ccc(Cl)cc2Cl)n1C1CCCCC1)N1CCCC1	2.37 µM (active)	–	AC50 [3]: > 70 µM (inactive); AC50 [4]: 23 µM (active)
COc1cc(CNc2ccc3[nH]c(O)nc3c2)ccc1OCc1ccccc1	–	–	IC50 [5]: > 80 µM (inactive)
C=CCN1CCN(C(c2cccc(OC)c2OC)c2nnnn2CCC(C)C)CC1 (stereo not drawn)	1.68 µM (active)	–	–
Fc1ccccc1COc1ccc(Br)cc1CNCC1CCCO1 (stereo not drawn)	0.944 µM (active)	–	–
CN1c2ccccc2N(C)C1(C)c1cccc2ccccc12	–	39.3 µM (active)	EC50 [6]: 0.544 µM (active); EC50 [7]: > 30 µM (not active)
COc1ccccc1N1CCN(CCCNC(=O)Nc2ccccc2)CC1	1.88 µM (active)	–	–
COc1cc(O)c(C(CCN2CCN(c3ccccc3)CC2)c2ccc(N(C)C)cc2)c(OC)c1 (stereo not drawn)	–	18.2 µM (active)	–
